# Entries after “also recorded” stand apart in the source; their conditions may differ. Numbered stars: 1 amine (or outer) side, 2 acyl side, 3 side chain; on linkers, the order of the positions; unused ones are H or OH. Bridge positions count the residues as written; N and C are the ends. Square brackets hold non-standard residues; d marks the D form. Peptide text beside a SMILES is read from it. X1 = CC(C)CCCCCCCCC[C@H](CC(=O)[*:1])O[*:2]; X2 = CCC(C)CCCCCCCCCCC(CC(=O)[*:2])N[*:1]
# Columns and labels:
# CD630 [1] = experiment: Bacteriolytic vs bacteriocidal vs bacteriostatic activity on log-phase CD630 cultures (OD600, CFU); type: cell-based, C. difficile; details: activity normalised; added at log phase
# Protocol: Fractions 1-3 were analysed for their ability to inhibit growth of cultures of CD630 by addition of test material at the log phase of cell growth (OD600˜0.3). Test materials were diluted in dH2O to normalise so that each sample to be tested carried the same activity/volume. […] of diluted test material was added to 1 ml of CD630 culture and 0.2 ml removed hourly for OD600 readings.
# Optical density (OD600) was measured before and after addition of test material. A decline in OD600 indicates bacteriolytic activity while stalling of the increase in OD600 indicates either bacteriostatic or bacteriocidal growth. On the other hand a decline in CFU/ml indicates both bacteriolytic and/or bacteriocidal activity. (FIGS. 22A and 22B and Table 13).
# M. tuberculosis H37Rv = experiment: MIC by resazurin microtitre assay (REMA); type: cell-based; details: Mycobacterium tuberculosis, 240 h, read-out: MIC, M. tuberculosis H37Rv
# [2] = lipopeptides of B. subtilis; cited from earlier work
# CD630 [3] = experiment: Microdilution assay of inhibitory activity against C. difficile strain 630; details: for activity to CD630 of commercial lipopeptides: commercial (SIGMA) samples, alone or combined
# [4] = Solubility in water / appearance of solution; type: physicochemical
# Excerpt: C15 iturin A is an example of a lipopeptide able to form micelles and is water-soluble. The inventors suspect that C15 iturin A may enable other lipopeptides to be solubilised in water and potentially form mixed micelles enabling them to target the bacterial cell. To test this, the inventors mixed water solubilised C15 iturin A with a commercial surfactin (Sigma S3523; derived from B. subtilis and a mixture of C13-C15 surfactins). […] The presence of C15 iturin A enables the solubilisation of […] in water and probably all or many of the other lipopeptides present in or on the cell wall of SG277 and other Bacillus species. The important requirements for activity are the concentration of lipopeptides that are produced (since micelles can only be formed at levels above a critical threshold). The micelles formed are most likely to be mixed micelles (i.e., carrying different lipopeptide species but all carrying C15 iturin A)(at least for B. amyloliquefaciens).
molecule,measurement,setting,value
CC(N)C(=O)NC(C[C@@H]1C=C(Cl)C(=O)CC1)C(=O)O (some centres unmarked) [Chlorotetaine],"Bacteriocidal (cessation of cell growth, CD630 cfu/ml)",CD630 [1],bacteriocidal
NNC(=O)c1ccncc1 [Isoniazid],MIC,M. tuberculosis H37Rv,0.25 µg/mL
CO[C@H]1/C=C/O[C@@]2(C)Oc3c(C)c(O)c4c(O)c(c(/C=N/N5CCN(C)CC5)c(O)c4c3C2=O)NC(=O)/C(C)=C\C=C\[C@H](C)[C@H](O)[C@@H](C)[C@@H](O)[C@@H](C)[C@H](OC(C)=O)[C@@H]1C [Rifampicin],MIC,M. tuberculosis H37Rv,0.5 µg/mL
"CCC(C)CCCCCCCCCCC1CC(=O)N[C@@H](CC(N)=O)C(=O)N[C@@H](CCC(N)=O)C(=O)N2CCC[C@H]2C(=O)N[C@H](Cc2ccc(O)cc2)C(=O)N[C@H](CC(N)=O)C(=O)N[C@H](CC(N)=O)C(=O)N[C@H](CO)C(=O)N[C@@H](CC(N)=O)C(=O)N1 (some centres unmarked) [mycosubtilin, Mycosubtilin] (cyclo(NQP[dY][dN][dN][dS]N[X2]))",micelle size,[2],8-18 nm
"CC(C)CCCCCCCCC[C@@H]1CC(=O)N[C@@H](CCC(=O)O)C(=O)N[C@@H](CC(C)C)C(=O)N[C@H](CC(C)C)C(=O)N[C@@H](C(C)C)C(=O)N[C@@H](CC(=O)O)C(=O)N[C@H](CC(C)C)C(=O)N[C@@H](CC(C)C)C(=O)O1 [surfactin, Surfactin] (EL[dL]VD[dL]L; linker N-C via X1)",micelle size,[2],5-105 nm
same,activity against C. difficile (in words),CD630 [3],no activity
same,activity to CD630 of commercial lipopeptides,CD630 [3],unable to demonstrate any activity; also recorded: none showed activity
same,solubility in water,[4],not soluble in water
Iturin A,activity to CD630 of commercial lipopeptides,CD630 [3],unable to demonstrate any activity
same,activity to CD630 of commercial lipopeptides,CD630 [3]; listed as iturin,none showed activity
fengycin,activity to CD630 of commercial lipopeptides,CD630 [3],none showed activity
